Laboratory results published in PubChem BioAssay (NCI).
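The concentration for 50% growth inhibition is given as GI50. TGI is the concentration that stops growth completely.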

What was measured:
Assay in all cases: DTP human tumour cell line panel, 384-well format
[1] = tested on: 786-0 renal
[2] = tested on: A498 renal
[3] = tested on: A549 NSCLC
[4] = tested on: ACHN renal
[5] = tested on: BT-549 breast
[6] = tested on: CAKI-1 renal
[7] = tested on: COLO 205 colon
[8] = tested on: EKVX NSCLC
[9] = tested on: HCC-2998 colon
[10] = tested on: HL-60(TB) leukemia
[11] = tested on: HOP-62 NSCLC
[12] = tested on: HOP-92 NSCLC
[13] = tested on: HS 578T breast
[14] = tested on: HT29 colon
[15] = tested on: K-562 leukemia
[16] = tested on: KM12 colon
[17] = tested on: LOX IMVI melanoma
[18] = tested on: M14 melanoma
[19] = tested on: MALME-3M melanoma
[20] = tested on: MCF7 breast
[21] = tested on: MDA-MB-231 breast
[22] = tested on: MDA-MB-435 melanoma
[23] = tested on: NCI-H23 lung
[24] = tested on: NCI-H322M lung
[25] = tested on: NCI-H460 NSCLC
[26] = tested on: NCI-H522 lung
[27] = tested on: NCI/ADR-RES ovarian
[28] = tested on: OVCAR-3 ovarian
[29] = tested on: OVCAR-4 ovarian
[30] = tested on: OVCAR-5 ovarian
[31] = tested on: OVCAR-8 ovarian
[32] = tested on: RPMI-8226 leukemia
[33] = tested on: RXF 393 renal
[34] = tested on: SF-268 CNS
[35] = tested on: SF-295 CNS
[36] = tested on: SK-MEL-2 melanoma
[37] = tested on: SK-MEL-28 melanoma
[38] = tested on: SK-MEL-5 melanoma
[39] = tested on: SK-OV-3 ovarian
[40] = tested on: SN12C renal
[41] = tested on: SNB-19 CNS
[42] = tested on: SW-620 colon
[43] = tested on: T-47D breast
[44] = tested on: TK-10 renal
[45] = tested on: UACC-257 melanoma
[46] = tested on: UACC-62 melanoma
[47] = tested on: UO-31 renal

With `CS(=O)(=O)N1CCN(Cc2cc3nc(-c4cccc5[nH]ncc45)nc(N4CCOCC4)c3s2)CC1` the GI50 [1] was 492 nM, the TGI [1] was 2770 nM and the GI50 [2] was 290 nM. For the same compound, the TGI [2] was 1590 nM, the GI50 [3] was 533 nM and the TGI [3] was > 100000 nM. For the same compound, the GI50 [4] was 460 nM, the TGI [4] was 6920 nM and the GI50 [5] was 202 nM. It also gave a TGI [5] of 2030 nM, a GI50 [6] of 260 nM and a TGI [6] of 6810 nM. For the same compound, the GI50 [7] was 480 nM, the TGI [7] was 34200 nM and the GI50 [8] was 185 nM. It also gave a TGI [8] of 2700 nM, a GI50 [9] of 723 nM and a TGI [9] of 14300 nM. For the same compound, the GI50 [10] was 46.3 nM, the TGI [10] was 593 nM and the GI50 [11] was 3110 nM. For the same compound, the TGI [11] was > 100000 nM, the GI50 [12] was 202 nM and the TGI [12] was 1490 nM. It also gave a GI50 [13] of 295 nM, a TGI [13] of 2150 nM and a GI50 [14] of 744 nM. For the same compound, the TGI [14] was 14700 nM, the GI50 [15] was 5480 nM and the TGI [15] was > 100000 nM. The GI50 [16] was 888 nM, the TGI [16] was > 100000 nM and the GI50 [17] was 827 nM. The TGI [17] was 11700 nM, the GI50 [18] was 916 nM and the TGI [18] was > 100000 nM. The GI50 [19] was 223 nM, the TGI [19] was 3030 nM and the GI50 [20] was 58.2 nM. For the same compound, the TGI [20] was 16300 nM, the GI50 [21] was 2130 nM and the TGI [21] was > 100000 nM. For the same compound, the GI50 [22] was 1180 nM, the TGI [22] was 11900 nM and the GI50 [23] was 570 nM. For the same compound, the TGI [23] was 18600 nM, the GI50 [24] was 442 nM and the TGI [24] was 5320 nM. For the same compound, the GI50 [25] was 206 nM, the TGI [25] was 47900 nM and the GI50 [26] was 391 nM. The TGI [26] was 7580 nM, the GI50 [27] was 1700 nM and the TGI [27] was 49900 nM. For the same compound, the GI50 [28] was 280 nM, the TGI [28] was 4390 nM and the GI50 [29] was 1380 nM. The TGI [29] was 41200 nM, the GI50 [30] was 553 nM and the TGI [30] was > 100000 nM. The GI50 [31] was 1110 nM, the TGI [31] was > 100000 nM and the GI50 [32] was 393 nM. The TGI [32] was 1670 nM, the GI50 [33] was 152 nM and the TGI [33] was 638 nM. For the same compound, the GI50 [34] was 1510 nM, the TGI [34] was 23300 nM and the GI50 [35] was 454 nM. For the same compound, the TGI [35] was 3590 nM, the GI50 [36] was 7040 nM and the TGI [36] was > 100000 nM. The GI50 [37] was 202 nM, the TGI [37] was 4180 nM and the GI50 [38] was 795 nM. For the same compound, the TGI [38] was 8530 nM, the GI50 [39] was 169 nM and the TGI [39] was 1620 nM. It also gave a GI50 [40] of 328 nM, a TGI [40] of 67200 nM and a GI50 [41] of 4380 nM. The TGI [41] was > 100000 nM, the GI50 [42] was 2420 nM and the TGI [42] was > 100000 nM. For the same compound, the GI50 [43] was 49.4 nM, the TGI [43] was 341 nM and the GI50 [44] was 203 nM. For the same compound, the TGI [44] was 1120 nM, the GI50 [45] was 2330 nM and the TGI [45] was > 100000 nM. For the same compound, the GI50 [46] was 238 nM, the TGI [46] was 1930 nM and the GI50 [47] was 478 nM. The TGI [47] was 9800 nM.

For `O=C(CCCCCCC(=O)N/N=C/c1ccc(N(c2ccccc2)c2ccccc2)cc1)NO`, the GI50 [1] was 1840 nM, the TGI [1] was 3820 nM and the GI50 [2] was 146 nM. For the same compound, the TGI [2] was 283 nM, the GI50 [3] was 1840 nM and the TGI [3] was 3830 nM. The GI50 [4] was 1790 nM, the TGI [4] was 3590 nM and the GI50 [5] was 2420 nM. The TGI [5] was 4880 nM, the GI50 [6] was 256 nM and the TGI [6] was 1140 nM. The GI50 [7] was 2120 nM, the TGI [7] was 3850 nM and the GI50 [8] was 2620 nM. For the same compound, the TGI [8] was 6520 nM, the GI50 [9] was 1840 nM and the TGI [9] was 3870 nM. The GI50 [10] was 1280 nM, the TGI [10] was 2560 nM and the GI50 [11] was 2040 nM. For the same compound, the TGI [11] was 5860 nM, the GI50 [12] was 1050 nM and the TGI [12] was 2620 nM. It also gave a GI50 [13] of 2110 nM, a TGI [13] of 4370 nM and a GI50 [14] of 1800 nM. It also gave a TGI [14] of 3450 nM, a GI50 [15] of 1420 nM and a TGI [15] of 2750 nM. The GI50 [16] was 2630 nM, the TGI [16] was 9170 nM and the GI50 [17] was 190 nM. For the same compound, the TGI [17] was 369 nM, the GI50 [18] was 2700 nM and the TGI [18] was 7060 nM. It also gave a GI50 [19] of 2070 nM, a TGI [19] of 4620 nM and a GI50 [20] of 297 nM. For the same compound, the TGI [20] was 1720 nM, the GI50 [21] was 1900 nM and the TGI [21] was 4600 nM. It also gave a GI50 [22] of 3910 nM, a TGI [22] of 11900 nM and a GI50 [23] of 1560 nM. It also gave a TGI [23] of 3170 nM, a GI50 [24] of 3110 nM and a TGI [24] of 9540 nM. The GI50 [25] was 1160 nM, the TGI [25] was 2450 nM and the GI50 [26] was 1440 nM. For the same compound, the TGI [26] was 4340 nM, the GI50 [27] was 4360 nM and the TGI [27] was 15900 nM. The GI50 [28] was 673 nM, the TGI [28] was 1900 nM and the GI50 [29] was 686 nM. It also gave a TGI [29] of 2000 nM, a GI50 [30] of 665 nM and a TGI [30] of 2090 nM. It also gave a GI50 [31] of 1500 nM, a TGI [31] of 3880 nM and a GI50 [32] of 260 nM. For the same compound, the TGI [32] was 574 nM, the GI50 [33] was 790 nM and the TGI [33] was 2100 nM. For the same compound, the GI50 [34] was 1990 nM, the TGI [34] was 3940 nM and the GI50 [35] was 1750 nM. The TGI [35] was 3370 nM, the GI50 [36] was 1450 nM and the TGI [36] was 2830 nM. The GI50 [37] was 2890 nM, the TGI [37] was 8290 nM and the GI50 [38] was 1630 nM. It also gave a TGI [38] of 3100 nM, a GI50 [39] of 1370 nM and a TGI [39] of 2830 nM. The GI50 [40] was 1830 nM, the TGI [40] was 3620 nM and the GI50 [41] was 2780 nM. For the same compound, the TGI [41] was 7200 nM, the GI50 [42] was 1420 nM and the TGI [42] was 2790 nM. For the same compound, the GI50 [43] was 562 nM, the TGI [43] was 1600 nM and the GI50 [44] was 255 nM. It also gave a TGI [44] of 720 nM, a GI50 [45] of 589 nM and a TGI [45] of 1310 nM. The GI50 [46] was 397 nM, the TGI [46] was 1440 nM and the GI50 [47] was 1730 nM. The TGI [47] was 8200 nM.
